# According to PubChem BioAssay AID493133 (Sanford-Burnham Center for Chemical Genomics, 2011):
# Calls of active or inactive are those of the source. The rule behind the calls is not given here.
# Biological target: Alkaline phosphatase, tissue-nonspecific isozyme (Homo sapiens) (UniProt P05186)
# Test: TNAP enzyme activity modulation, counter to mouse IAP activators, SAR follow-up, selectivity assay for mouse IAP activator project, biochemical (AID 493133)
# Settings: purified human TNAP enzyme, phosphatase activity counter-screen
# Alkaline phosphatase, tissue-nonspecific isozyme (Homo sapiens), sequence (P05186 whole entry, looked up): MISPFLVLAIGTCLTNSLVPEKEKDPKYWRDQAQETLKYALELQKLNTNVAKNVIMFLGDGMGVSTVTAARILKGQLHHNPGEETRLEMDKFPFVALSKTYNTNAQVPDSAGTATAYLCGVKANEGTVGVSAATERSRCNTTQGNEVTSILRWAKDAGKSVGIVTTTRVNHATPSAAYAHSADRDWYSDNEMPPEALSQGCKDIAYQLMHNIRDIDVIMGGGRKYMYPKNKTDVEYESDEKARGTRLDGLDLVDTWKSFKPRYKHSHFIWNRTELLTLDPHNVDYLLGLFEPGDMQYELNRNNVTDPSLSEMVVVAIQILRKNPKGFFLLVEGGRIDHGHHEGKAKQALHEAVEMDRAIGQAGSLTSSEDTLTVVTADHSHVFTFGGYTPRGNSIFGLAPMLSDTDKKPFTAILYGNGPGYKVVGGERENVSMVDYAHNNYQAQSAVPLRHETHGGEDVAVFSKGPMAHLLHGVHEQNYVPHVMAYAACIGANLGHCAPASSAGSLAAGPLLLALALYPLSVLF
row,Structure (SMILES),EC50
1,O=C(CN1C(=O)/C(=C/c2ccco2)SC1=S)NC1CCS(=O)(=O)C1 (configuration not stated),> 100 µM (inactive)
2,COC(=O)c1ccc(C)c(NC(=O)CSc2sc3c(O)cc(=O)[nH]c3c2C#N)c1,> 100 µM (inactive)
3,Cc1ccc(NC(=O)CCNS(=O)(=O)c2ccc3[nH]c(=O)oc3c2)c(C)c1,> 100 µM (inactive)
4,CN(C(=O)CN1C(=O)/C(=C\c2ccco2)SC1=S)C1CCS(=O)(=O)C1 (configuration not stated),> 100 µM (inactive)
5,COc1ccc(CNC(=O)CSc2sc3c(O)cc(=O)[nH]c3c2C#N)cc1,> 100 µM (inactive)
6,COc1ccc(NC(=O)CCNS(=O)(=O)c2ccc3[nH]c(=O)oc3c2)cc1Cl,> 100 µM (inactive)
7,O=C(CN1C(=O)/C(=C/c2ccco2)SC1=S)Nc1ccc(O)c(C(=O)O)c1,> 100 µM (inactive)
8,O=C(N/N=C/C1CC2CCC1C2)c1cc(O)c(O)c(O)c1 (configuration not stated),> 100 µM (inactive)
9,O=C(CN1C(=O)/C(=C\c2ccco2)SC1=S)Nc1ccccc1C(=O)O,> 100 µM (inactive)
10,Cc1ccc(C)c(NC(=O)CCNS(=O)(=O)c2ccc3[nH]c(=O)oc3c2)c1,> 100 µM (inactive)
11,S=C(NCCC(c1ccccc1)c1ccccc1)Nc1ccc(Cl)cc1Cl,56 µM
12,Cc1ccc(NC(=O)CSc2sc3c(O)cc(=O)[nH]c3c2C#N)c(F)c1,> 100 µM (inactive)
13,O=C(CCN1C(=O)/C(=C\c2ccco2)SC1=S)Nc1ccc(C(=O)O)c(O)c1,> 100 µM (inactive)
14,O=[N+]([O-])c1ccc(NC(=S)NCCC(c2ccccc2)c2ccccc2)cc1,> 100 µM (inactive)
15,COc1cc(C(=O)NNC(=O)C2CC2)cc(OC)c1OC,> 100 µM (inactive)
16,N#Cc1c(SCC(=O)Nc2nccs2)sc2c(O)cc(=O)[nH]c12,> 100 µM (inactive)
17,O=C(N/N=C/c1ccco1)c1cc(O)c(O)c(O)c1,> 100 µM (inactive)
18,CC(C(=O)N(C)C1CCS(=O)(=O)C1)N1C(=O)/C(=C/c2ccco2)SC1=S (configuration not stated),> 100 µM (inactive)
19,O=C(NNC(=O)c1cc(O)c(O)c(O)c1)NC1CCCCC1,> 100 µM (inactive)
20,N#Cc1c(SCC(=O)Nc2cccc(F)c2)sc2c(O)cc(=O)[nH]c12,> 100 µM (inactive)
21,N#Cc1c(SCC(=O)NCc2ccc3c(c2)OCO3)sc2c(O)cc(=O)[nH]c12,> 100 µM (inactive)
22,O=C(CN1C(=O)/C(=C/c2ccco2)SC1=S)Nc1ccc(C(=O)O)c(O)c1,> 100 µM (inactive)
23,O=C(CN1C(=O)/C(=C\c2ccco2)SC1=S)Nc1cccc(C(=O)O)c1,> 100 µM (inactive)

row,Structure (SMILES),EC50
1,Cc1ccc(NC(=O)CCNS(=O)(=O)c2ccc3[nH]c(=O)oc3c2)cc1,> 100 µM (inactive)
2,CSc1cccc(NC(=O)CCNS(=O)(=O)c2ccc3[nH]c(=O)oc3c2)c1,> 100 µM (inactive)
3,COc1cc(C(=O)NNC(=S)NC(=O)c2ccc(Cl)cc2)cc(OC)c1OC,29.4 µM
4,COc1ccc(Cl)cc1NC(=O)CSc1sc2c(O)cc(=O)[nH]c2c1C#N,> 100 µM (inactive)
5,O=C(CN1C(=O)/C(=C\c2ccco2)SC1=S)Nc1ccc(C(=O)O)cc1,> 100 µM (inactive)
6,CCOC(=O)NC(=O)CSc1sc2c(O)cc(=O)[nH]c2c1C#N,> 100 µM (inactive)
7,CC(C(=O)NCCc1ccc(O)cc1)N1C(=O)/C(=C/c2ccco2)SC1=S (configuration not stated),> 100 µM (inactive)
8,O=C(N/N=C/c1ccccc1F)c1cc(O)c(O)c(O)c1,> 100 µM (inactive)
9,CCc1ccc(NC(=O)CN(C)S(=O)(=O)c2ccc3[nH]c(=O)oc3c2)cc1,> 100 µM (inactive)
10,COc1ccccc1NC(=O)CSc1sc2c(O)cc(=O)[nH]c2c1C#N,> 100 µM (inactive)
11,O=C1/C(=C/c2ccco2)SC(=S)N1C1CCS(=O)(=O)C1 (configuration not stated),> 100 µM (inactive)
12,Cc1cc(=O)oc2cc(NC(=S)NCCC(c3ccccc3)c3ccccc3)ccc12,> 100 µM (inactive)
13,CCSc1nnc(NC(=O)CSc2sc3c(O)cc(=O)[nH]c3c2C#N)s1,> 100 µM (inactive)
14,N#Cc1c(SCC(=O)Nc2nncs2)sc2c(O)cc(=O)[nH]c12,> 100 µM (inactive)
15,N#Cc1cccc(NC(=O)CSc2sc3c(O)cc(=O)[nH]c3c2C#N)c1,> 100 µM (inactive)
16,O=S(=O)(Nc1ncccn1)c1ccc(NC(=S)NCCC(c2ccccc2)c2ccccc2)cc1,> 100 µM (inactive)
17,O=C(N/N=C/C1CC=CCC1)c1cc(O)c(O)c(O)c1 (configuration not stated),> 100 µM (inactive)
18,O=C(CN1C(=O)/C(=C/c2ccco2)SC1=S)Nc1ccc(C(=O)O)cc1,> 100 µM (inactive)
19,N#Cc1c(SCC(=O)Nc2ccc(Cl)cc2Cl)sc2c(O)cc(=O)[nH]c12,> 100 µM (inactive)
20,N#Cc1cccc(NC(=O)CCNS(=O)(=O)c2ccc3[nH]c(=O)oc3c2)c1,> 100 µM (inactive)
21,COc1cc(C(=O)NN=Cc2ccccn2)cc(OC)c1OC,31 µM
22,CN1CCC(=NNC(=O)c2cc(O)c(O)c(O)c2)CC1,> 100 µM (inactive)
23,Cc1ccc(NC(=O)CCNS(=O)(=O)c2ccc3[nH]c(=O)oc3c2)cc1F,> 100 µM (inactive)

row,Structure (SMILES),EC50
1,O=C(CCCN1C(=O)/C(=C\c2ccco2)SC1=S)Nc1ccc(O)cc1C(=O)O,> 100 µM (inactive)
2,Cc1ccc(Cl)cc1NC(=O)CSc1sc2c(O)cc(=O)[nH]c2c1C#N,> 100 µM (inactive)
3,COc1ccc(NC(=S)NCCC(c2ccccc2)c2ccccc2)cc1,44.8 µM
4,CC(C(=O)Nc1ccccc1C(=O)O)N1C(=O)/C(=C\c2ccco2)SC1=S (configuration not stated),> 100 µM (inactive)
5,CCOc1ccccc1NC(=O)CCNS(=O)(=O)c1ccc2[nH]c(=O)oc2c1,> 100 µM (inactive)
6,N#Cc1c(SCC(=O)Nc2nc3ccccc3s2)sc2c(O)cc(=O)[nH]c12,> 100 µM (inactive)
7,Cc1ccc(/C=N/NC(=O)c2cc(O)c(O)c(O)c2)cc1,> 100 µM (inactive)
8,O=C(NN=Cc1cccnc1)c1cc(O)c(O)c(O)c1,> 100 µM (inactive)
9,COc1cc(Cl)c(C)cc1NC(=O)CSc1sc2c(O)cc(=O)[nH]c2c1C#N,> 100 µM (inactive)
10,FC(F)(F)c1cccc(NC(=S)NCCC(c2ccccc2)c2ccccc2)c1,84.5 µM
11,O=C(CCN1C(=O)/C(=C/c2ccco2)SC1=S)Nc1ccc(C(=O)O)c(O)c1,> 100 µM (inactive)
12,O=C(CN1C(=O)/C(=C/c2ccco2)SC1=S)NC1C=CS(=O)(=O)C1 (configuration not stated),> 100 µM (inactive)
13,O=C(CN1C(=O)/C(=C/c2ccco2)SC1=S)Nc1ccc2nccnc2c1,> 100 µM (inactive)
14,COc1cccc(NC(=O)CN(C)S(=O)(=O)c2ccc3[nH]c(=O)oc3c2)c1,> 100 µM (inactive)
15,COc1ccc(NC(=O)C(CC(C)C)NS(=O)(=O)c2ccc3[nH]c(=O)oc3c2)cc1 (configuration not stated),> 100 µM (inactive)
16,CC(C)NC(=O)CSc1sc2c(O)cc(=O)[nH]c2c1C#N,> 100 µM (inactive)
17,O=C(CN1C(=O)/C(=C/c2ccco2)SC1=S)NCCc1ccc(O)cc1,> 100 µM (inactive)
18,N#Cc1c(SCC(=O)Nc2ccccc2C(F)(F)F)sc2c(O)cc(=O)[nH]c12,> 100 µM (inactive)
19,O=C(NCCc1ccc(Cl)cc1)C1CCCN(S(=O)(=O)c2ccc3[nH]c(=O)oc3c2)C1 (configuration not stated),> 100 µM (inactive)
20,COc1cccc(CNC(=O)CCNS(=O)(=O)c2ccc3[nH]c(=O)oc3c2)c1,> 100 µM (inactive)
21,O=C(CCN1C(=O)/C(=C/c2ccco2)SC1=S)Nc1ccc(O)cc1C(=O)O,> 100 µM (inactive)
